Data as given in patent US8163921B2, “Hepatitis C virus inhibitors” (Bristol-Myers Squibb Company, priority 2008, dated 2012).
Like-named read-outs stand apart in the source and are kept apart here.

Experiments:
[1] = tested on: HCV replicon in HUH-7 cells; test: HCV replicon FRET assay; format: cell-based, HCV strain 1b; settings: Hepatitis C virus
[2] = molecular target: T1, HCV NS3/4A protease complex, BMS strain (UniProt P27958, C1454S/C1711G, species not given); test: FRET peptide assay to monitor HCV NS3/4A proteolytic activity (BMS strain); format: biochemical, HCV genotype 1a; settings: read-out: IC50 Range, HCV NS3/4A enzyme assay
T1 construct: other: HCV NS3/4A enzyme assay; class symbols; numeric values; fused on or other part: three-lysine solubilising tail at the C-terminus of NS4A; purified on Ni-NTA from the pET21b vector (His tag implied)
In short: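 Recombinant HCV NS3/4A protease complex (BMS strain, genotype 1a), 2-3 nM final (300 pM with 50 μg/ml BSA for very potent compounds), incubated with RET S1 EDANS/DABCYL depsipeptide substrate at 2 μM final. Buffer: 50 mM HEPES pH 7.5, 0.15 M NaCl, 0.1% Triton, 15% glycerol, 10 mM βME. Cleavage followed in real time by fluorescence.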

| SMILES | EC50 ([1]; Huh-7, read-out: EC50 Range) [nM] | IC50 ([2]; class symbols) [nM] | EC50 ([1]; Huh-7, HCV replicon cell assay, numeric values, read-out: EC50 Range) [nM] | IC50 ([2]; numeric values) [nM] |
| --- | --- | --- | --- | --- |
| C=C[C@@H]1C[C@]1(NC(=O)[C@@H]1C[C@@H](Oc2ncc(OC)c3ccc(Cl)cc23)CN1C(=O)[C@@H](Nc1nc(-c2cc(F)ccc2OC)cs1)C(C)(C)C)C(=O)NS(=O)(=O)C1CC1 [Example 56] | 1 to 50 | 1 to 20 |  |  |
| C=C[C@@H]1C[C@]1(NC(=O)[C@@H]1C[C@@H](Oc2ncc(OC)c3ccc(Cl)cc23)CN1C(=O)[C@@H](Nc1nc(-c2c(Cl)cccc2Cl)cs1)C(C)(C)C)C(=O)NS(=O)(=O)C1CC1 [Example 57] | 1 to 50 | 1 to 20 |  |  |
| C=C[C@@H]1C[C@]1(NC(=O)[C@@H]1C[C@@H](Oc2ncc(OC)c3ccc(Cl)cc23)CN1C(=O)[C@@H](Nc1nc(-c2c(OC)cccc2OC)cs1)C(C)(C)C)C(=O)NS(=O)(=O)C1CC1 [Example 58] | 1 to 50 | 1 to 20 |  |  |
| C=C[C@@H]1C[C@]1(NC(=O)[C@@H]1C[C@@H](Oc2ncc(OC)c3ccc(Cl)cc23)CN1C(=O)[C@@H](Nc1nc(-c2cc(Cl)c(C)cc2OC)cs1)C(C)(C)C)C(=O)NS(=O)(=O)C1CC1 [Example 59] | 1 to 50 | 1 to 20 |  |  |
| C=C[C@@H]1C[C@]1(NC(=O)[C@@H]1C[C@@H](Oc2ncc(OC)c3ccc(Cl)cc23)CN1C(=O)[C@@H](Nc1nc(-c2cc(-c3ccccc3)no2)cs1)C(C)(C)C)C(=O)NS(=O)(=O)C1CC1 [Example 85] | 1 to 50 | 1 to 20 |  |  |
| C=C[C@@H]1C[C@]1(NC(=O)[C@@H]1C[C@@H](Oc2ncc(OC)c3ccc(Cl)cc23)CN1C(=O)[C@@H](Nc1nc(-c2cc(C)c(Cl)cc2F)cs1)C(C)(C)C)C(=O)NS(=O)(=O)C1CC1 [Example 92] | 1 to 50 | 1 to 20 |  |  |
| C=C[C@@H]1C[C@]1(NC(=O)[C@@H]1C[C@@H](Oc2ncc(OC)c3ccc(Cl)cc23)CN1C(=O)[C@@H](Nc1nc(-c2ccsc2)cs1)C(C)(C)C)C(=O)NS(=O)(=O)C1CC1 [Example 93] | 1 to 50 | 1 to 20 |  |  |
| COc1cnc(O[C@@H]2C[C@@H](C(=O)N[C@]3(C(=O)NS(=O)(=O)C4CC4)C[C@H]3CC(F)F)N(C(=O)[C@@H](Nc3nc(-c4ccc(F)c(C(F)(F)F)c4)cs3)C(C)(C)C)C2)c2cc(Cl)ccc12 [Example 97, (2S,4R)-4-(7-chloro-4-methoxyisoquinolin-1-yloxy)-N-((1R,2S)-1-(cyclopropylsulfonylcarbamoyl)-2-(2,2-difluoroethyl)cyclopropyl)-1-((S)-2-(4-(4-fluoro-3-(trifluoromethyl)phenyl)thiazol-2-ylamino)-3,3-dimethylbutanoyl)pyrrolidine-2-carboxamide] | 1 to 50 | 1 to 20 |  |  |
| COc1cnc(O[C@@H]2C[C@@H](C(=O)N[C@]3(C(=O)NS(=O)(=O)C4CC4)C[C@H]3CC(F)F)N(C(=O)[C@@H](Nc3nc(-c4cc(-c5ccc(Cl)cc5)no4)cs3)C(C)(C)C)C2)c2cc(Cl)ccc12 [Example 98] | 1 to 50 | 1 to 20 |  |  |
| COc1cnc(O[C@@H]2C[C@@H](C(=O)N[C@]3(C(=O)NS(=O)(=O)C4CC4)C[C@H]3CC(F)F)N(C(=O)[C@@H](Nc3nc(-c4ccc(Oc5ccccc5)cc4)cs3)C(C)(C)C)C2)c2cc(Cl)ccc12 [Example 99] | 50 to 200 | 20 to 200 |  |  |
| C=C[C@@H]1C[C@]1(NC(=O)[C@@H]1C[C@@H](Oc2ncc(OC)c3ccc(Cl)cc23)CN1C(=O)C(C)Nc1nnnn1-c1ccccc1)C(=O)NS(=O)(=O)C1CC1 (stereo partly shown) [Example 100] |  |  | 334 | 795 |
